From ChEMBL document CHEMBL5729720, “Pyridine and pyrazine derivatives as preferential cannabinoid 2 agonists” (2023) come the findings set out here.

Chain of Cannabinoid receptor 2 (P34972 whole entry): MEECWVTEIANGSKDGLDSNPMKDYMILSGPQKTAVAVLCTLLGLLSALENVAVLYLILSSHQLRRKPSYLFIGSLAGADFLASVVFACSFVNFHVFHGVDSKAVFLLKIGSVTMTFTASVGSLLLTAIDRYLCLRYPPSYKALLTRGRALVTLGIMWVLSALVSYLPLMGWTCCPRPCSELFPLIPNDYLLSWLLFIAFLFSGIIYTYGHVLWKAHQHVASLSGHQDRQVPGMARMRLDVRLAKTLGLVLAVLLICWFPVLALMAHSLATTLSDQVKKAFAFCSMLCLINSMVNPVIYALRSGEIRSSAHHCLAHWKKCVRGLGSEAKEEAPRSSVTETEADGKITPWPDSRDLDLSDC

The assay concerns the target Cannabinoid receptor 2 (Homo sapiens, UniProt P34972). Briefly: Radioligand Binding Assay: The affinity of the compounds of the invention for cannabinoid CB1 receptors was determined using recommended amounts of membrane preparations (PerkinElmer) of human embryonic kidney (HEK) cells expressing the human CNR1 or CNR2 receptors in conjunction with 1.5 or 2.6 nM [3H]-CP-55,940 (Perkin Elmer) as radioligand, respectively. Binding was performed in binding buffer (50 mM Tris, 5 mM MgCl2, 2.5 mM EDTA, and 0.5% (wt/vol) fatty acid free BSA, pH 7.4 for CB1 receptor and 50 mM Tris, 5 mM MgCl2, 2.5 mM EGTA, and 0.1% (wt/vol) fatty acid free BSA, pH 7.4 for CB2 receptor) in a total volume of 0.2 ml for 1 h at 30° C. shaking. The reaction was terminated by rapid filtration through microfiltration plates coated with 0.5% polyethylenimine (UniFilter GFB filter plate; Packard). Bound radioactivity was analyzed for Ki using nonlinear regression analysis (Activity Base, ID Business Solution, Limited), with the Kd values for [3H]CP55,940 determined from saturation experiments. The compounds of formula (I) show an excellent affinity for the CB2 receptor.
For the compound `CCC(CC)(NC(=O)c1ccc(N2CC(OC)C2)c(OC[C@H]2C[C@@H]2CO)n1)C(=O)OCCCCF`, the Ki (as a rule, a measure of affinity in units of concentration, obtained from inhibition or displacement) stood at 1.8 nM. With `CCOC(=O)C(CC)(CC)NC(=O)c1ccc(N2CC(OC)C2)c(OC[C@H]2C[C@@H]2COCF)n1` (mixture of isomers) the figure was 1.8 nM; with `CCOC(=O)C(CC)(CC)NC(=O)c1ccc(N2CC(OC)C2)c(OC[C@H]2C[C@@H]2COCCF)n1` (mixture of isomers), 3.7 nM.
